{"source": "patent US10428151B2", "about": "“Treatment of hematologic malignancies with an anti-CXCR4 antibody” (BRISTOL-MYERS SQUIBB COMPANY, priority 2011, dated 2019)", "key": {"Ramos cells": {"tested_on": "Ramos cells", "assay": "Ramos systemic tumor cell model, survival", "assay_type": "in vivo, mouse", "settings": "second experiment", "description": "In this example, the ability of an anti-CXCR4 human antibody to increase survival time of mice was examined using a Ramos systemic tumor cell model. In this assay, 1×10^6 Ramos cells/mouse were injected intravenously (IV) into each mouse on Day 0. The mice then received an intraperitoneal (IP) injection of a first dose of antibody on Day 1 (i.e., one day after IV administration of tumor cells) and received four more IP doses of antibody, on days 5, 8, 15 and 22 (mice treated with the positive control antibody were treated only on day 1). […] Dose response studies had previously found 15 mg/kg to be an effective dose of anti-CD19 (data not shown). Percent survival was measured at regular intervals between Day 0 and Day 50 post dosing (hind leg paralysis was used as the endpoint of the experiment). […] The median numbers of days of survival for the mice treated with either vehicle or the isotype control were 23 and 25.5 days, respectively, whereas the median number of days of survival of the mice treated with one dose of the anti-CD19 positive control was 39 days.\nThe median number of days of survival for the mice treated with the vehicle or the isotype controls were 23-24 days, whereas the median number of days of survival of the mice treated with one dose of the anti-CD19 positive control was 39 days."}, "[1]": {"tested_on": "MDA-MB231 human breast cancer cells", "assay": "MDA-MB231 breast cancer xenograft", "assay_type": "in vivo, mouse", "text": "In one experiment, 7.5×10^6 MDA-MB231 human breast cancer cells/mouse were implanted into the flank region of each mouse and allowed to grow to a mean size of 100 mm^3, calculated by length×width×height/2 of the tumors, which was day 7 post-implantation. The mice were randomized into different treatment groups and received an intraperitoneal (IP) injection of a first dose of antibody on day 7 post-implantation, received a second IP dose of antibody on day 14 post-implantation and then received a third dose on day 46 post-implantation. […] Tumor volumes were measured at regular intervals and the mean and median tumor volume determined for each treatment group at each interval."}, "[2]": {"tested_on": "DMS79 human small cell lung carcinoma cells", "assay": "DMS79 small cell lung carcinoma xenograft", "assay_type": "in vivo, mouse", "settings": "Day 34 post-implantation; 10 mg/kg IP Q3D×5", "description": "In a second experiment, 5×10^6 DMS79 human small cell lung carcinoma cells/mouse were implanted into the flank region of each mouse and allowed to grow to a mean size of 160 mm^3, calculated by length×width×height/2 of the tumors, which was day 7 post-implantation. The mice were randomized into different treatment groups and received intraperitoneal (IP) injections of antibody on a dosing schedule of Q3D×5 (every three days for five times). […] Tumor volumes were measured at regular intervals and the mean and median tumor volume determined for each treatment group at each interval."}, "[3]": {"tested_on": "SU-DHL-6 B cell lymphoma cells", "assay": "SU-DHL-6 subcutaneous xenograft", "assay_type": "in vivo, mouse", "description": "(§1) Additional subcutaneous xenograft tumor models were tested for the ability of anti-CXCR4 antibodies to inhibit tumor growth, in experiments similar to those described above and in Example 9. […] Although the tumor cells in vivo were stainable by the mAb by immunohistochemistry, it is unclear at what stage of their tumor growth CXCR4 began to be expressed."}, "[4]": {"tested_on": "NIH-H226 lung carcinoma cells", "assay": "NIH-H226 subcutaneous xenograft", "assay_type": "in vivo, mouse", "description": "as §1"}, "[5]": {"tested_on": "HPAC human pancreatic adenocarcinoma cells", "assay": "HPAC subcutaneous xenograft", "assay_type": "in vivo, mouse", "description": "as §1"}, "B16-CXCR4 cells": {"tested_on": "B16-CXCR4 cells", "assay": "B16-CXCR4 lung metastases, C57 mouse systemic tumor model", "assay_type": "in vivo", "settings": "day 14, 5 mg/kg IP", "description": "In this example, the ability of the F7 anti-CXCR4 mAb to inhibit lung metastases was examined using a C57 mouse systemic tumor model. More specifically, 0.4×10^6 B16-CXCR4 cells (B16 cells transfected to express human CXCR4) were injected intravenously into each of 30 mice of the C57 strain. The mice were randomized into three groups of ten mice each, which were then treated with either (i) vehicle (PBS); (ii) IgG4 isotype control (5 mg/kg); or (iii) F7 IgG4 (5 mg/kg). The antibody or vehicle was injected intraperitoneally 30 minutes after the B16-CXCR4 cells were injected intravenously. Lungs were harvested on day 14 and the number of lung metastasis nodules was quantitated."}, "[6]": {"tested_on": "Bortezomib-resistant JJN-3R cells", "assay": "JJN-3R MM xenograft in SCID mice", "assay_type": "in vivo"}, "RPMI-8226 cells": {"tested_on": "RPMI-8226 cells", "assay": "RPMI-8226 MM xenograft in SCID mice", "assay_type": "in vivo", "description": "The mice were randomized (n=8) when the tumor volume reached approximately 20 mm^3, dosed on Days 0, 3, 7, 10 and 14 with MDX-1338 (10 mg/kg/dose) alone or in combination with 50 mg/kg lenalidomide or in combination with 0.8 mg/kg bortezomib."}, "KG-1": {"tested_on": "KG-1", "assay": "KG-1 tumor growth inhibition (monotherapy)", "assay_type": "in vivo"}, "CCRF-CEM": {"tested_on": "CCRF-CEM", "assay": "CCRF-CEM tumor growth inhibition (monotherapy)", "assay_type": "in vivo"}, "MM cells [7]": {"tested_on": "MM cells", "assay": "Apoptotic and CXCL12 signalling pathways in MM cells", "assay_type": "cell-based", "text": "The BMS936564 antibody targeted MM cells in the context of BM milieu by overcoming BMSC-induced proliferation of tumor cells. […] Importantly, as described in Example 16, BMS936564 inhibited MM cell proliferation in vivo in xenograft mouse models."}, "CLL cells [8]": {"tested_on": "CLL cells", "settings": "2-200 nM; Kashyap et al., 2012; cited from earlier work"}, "CLL cells [9]": {"tested_on": "CLL cells", "settings": "Kashyap et al., 2012; cited from earlier work"}, "melanoma": {"tested_on": "melanoma", "settings": "melanoma xenograft model; compared to vehicle-treated mice; Roccaro et al., 2012; cited from earlier work"}, "MM cells [10]": {"tested_on": "MM cells", "settings": "Roccaro et al., 2012; cited from earlier work"}, "[11]": {"settings": "Day 59 post-implantation, 15 mg/kg IP"}}, "note": "Several values for one entry are separate records, joined by “and”; a condition that tells them apart may be missing. Equal entries are not always repeated.", "data": [{"substance": "BMS-936564: fully human anti-CXCR4 monoclonal antibody; VH SEQ ID NO: 25, VL SEQ ID NO: 29", "values": [{"measurement": "efficacy in prolonging mouse survival", "setting": "Ramos cells; 15 mg/kg", "value": "highly efficacious in prolonging mouse survival"}, {"measurement": "percent of mice survived at end of experiment", "setting": "Ramos cells; five doses 15 mg/kg, 120 days after implantation", "value": 100, "unit": "%"}, {"measurement": "Mean tumor volume", "setting": "[1]; Day 52 post-implantation, 15 mg/kg IP", "value": 79, "unit": "mm^3"}, {"measurement": "Median tumor volume", "setting": "[1]; [11]", "value": 108, "unit": "mm^3"}, {"measurement": "TGI (%) (median)", "setting": "[1]; [11]", "value": 52, "unit": "%"}, {"measurement": "mice tumor free", "setting": "[1]; day 59, n=9", "value": "one"}, {"measurement": "Mean tumor volume", "setting": "[2]", "value": 620, "unit": "mm^3"}, {"measurement": "Median tumor volume", "setting": "[2]", "value": 599, "unit": "mm^3"}, {"measurement": "TGI (%) (mean)", "setting": "[2]", "value": 38, "unit": "%"}, {"measurement": "% Tumor Growth Inhibition (Monotherapy)", "setting": "[3]; DHL6", "value": "55% and 77%"}, {"measurement": "tumor growth inhibition", "setting": "[3]; SU-DHL-6, 15 mg/kg", "value": "approximately 60%"}, {"measurement": "tumor growth inhibition", "setting": "[4]", "value": "no tumor growth inhibition"}, {"measurement": "tumor growth inhibition", "setting": "[5]", "value": "no tumor growth inhibition"}, {"measurement": "Number of Lung Metastases Mean", "setting": "B16-CXCR4 cells", "value": 157}, {"measurement": "Number of Lung Metastases Median", "setting": "B16-CXCR4 cells", "value": 186}, {"measurement": "% Inhibition of Lung Mets (Mean)", "setting": "B16-CXCR4 cells; listed as F7 Anti-CXCR4 IgG4, 5 mg/kg", "value": 56, "unit": "%"}, {"measurement": "% Inhibition of Lung Mets (Mean)", "setting": "B16-CXCR4 cells; listed as F7 mAb, 5 mg/kg", "value": 56, "unit": "%"}, {"measurement": "mice tumor-free at the end of study", "setting": "[6]; 30-mg/kg group", "value": "4 out of 7"}, {"measurement": "% Tumor Growth Inhibition (Monotherapy)", "setting": "[6]; JJN3R", "value": 97, "unit": "%"}, {"measurement": "tumor growth inhibition", "setting": "[6]; JJN-3R", "value": "MDX-1338 = 100%"}, {"measurement": "median tumor growth inhibition", "setting": "[6]; day 25, 10 or 30 mg/kg/dose IP, compared to isotype control", "value": 100, "unit": "%"}, {"measurement": "delay of mean tumor growth", "setting": "RPMI-8226 cells; Day 44, 10 mg/kg/dose, compared to vehicle control", "value": 53, "unit": "%"}, {"measurement": "mean tumor growth inhibition", "setting": "RPMI-8226 cells; Day 44, compared to isotype control, MDX-1338 10 mg/kg, lenalidomide 50 mg/kg, bortezomib 0.8 mg/kg", "value": 61, "unit": "%"}, {"measurement": "tumor growth inhibition", "setting": "RPMI-8226 cells; RPMI-8226", "value": "MDX-1338 = 61%"}, {"measurement": "% Tumor Growth Inhibition (Monotherapy)", "setting": "KG-1", "value": 23, "unit": "%"}, {"measurement": "% Tumor Growth Inhibition (Monotherapy)", "setting": "CCRF-CEM", "value": 72, "unit": "%"}, {"measurement": "CXCL12-induced ERK-, Aid-, and Src-phosphorylation", "setting": "MM cells [7]", "value": "inhibited by BMS936564 in a dose-dependent manner"}, {"measurement": "activation of apoptotic pathways in MM cells", "setting": "MM cells [7]", "value": "cleavage of caspase-9 and PARP"}, {"measurement": "cell death in CLL cells cultured alone and in the MRD model", "setting": "CLL cells [8]", "value": "induced cell death"}, {"measurement": "inhibition of CXCL12-mediated F-actin polymerization in CLL cells", "setting": "CLL cells [9]", "value": "at lower concentrations than with AMD-3100"}, {"measurement": "number of metastasis", "setting": "melanoma", "value": "reduced number of metastasis"}, {"measurement": "migration of MM cells toward CXCL12 and primary MM BMSCs", "setting": "MM cells [10]", "value": "inhibited migration"}]}]}
